In ChEMBL document CHEMBL1201862, “PubChem BioAssay data set” (2004):
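How tested: cells in 96-well plates exposed to compound for 48 hours at five concentrations. GI50 marks 50% less growth.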 Activity calls are given as the source filed them. Cut-off read from the data, not from the text of the source: active = GI50 up to about 1.1 µM and inactive = higher.

What was measured:
Assay in all cases: NCI anticancer screen, dose series, 48 h
CCRF-CEM = test system: CCRF-CEM
SNB-19 = test system: SNB-19
OVCAR-8 = test system: OVCAR-8
NCI/ADR-RES = test system: NCI/ADR-RES
A498 = test system: A498
MDA-MB-231 = test system: MDA-MB-231
NCI-H226 = test system: NCI-H226
NCI-H23 = test system: NCI-H23
HT-29 = test system: HT-29
MOLT-4 = test system: MOLT-4
HOP-62 = test system: HOP-62
A549 = test system: A549
EKVX = test system: EKVX
HCC 2998 = test system: HCC 2998
PC-3 = test system: PC-3
BT-549 = test system: BT-549
KM12 = test system: KM12
RPMI-8226 = test system: RPMI-8226
SW-620 = test system: SW-620
SNB-75 = test system: SNB-75

Measured: GI50

COc1ccc(C2=Nn3c(C)nnc3S/C2=C\c2ccc(-c3ccc([N+](=O)[O-])cc3)o2)cc1
inactive: CCRF-CEM 3.92 µM | SNB-19 15.6 µM | OVCAR-8 3.62 µM | NCI/ADR-RES 7.85 µM | A498 31.2 µM | MDA-MB-231 19.9 µM | NCI-H226 27.2 µM | NCI-H23 13.9 µM | HT-29 14.2 µM | MOLT-4 3.56 µM | HOP-62 24.4 µM | A549 20 µM | EKVX 27.9 µM | HCC 2998 7.41 µM | PC-3 9.84 µM | BT-549 5.86 µM | KM12 16.1 µM | RPMI-8226 3.22 µM

O=C(O)C1Cc2ccccc2OC1=O (stereo unspecified)
inactive: SNB-19 > 100 µM | OVCAR-8 > 100 µM | NCI/ADR-RES > 100 µM | MDA-MB-231 > 100 µM | NCI-H226 > 100 µM | NCI-H23 8.69 µM | HT-29 > 100 µM | MOLT-4 > 100 µM | HOP-62 > 100 µM | A549 > 100 µM | SW-620 > 100 µM | EKVX > 100 µM | HCC 2998 > 100 µM | PC-3 > 100 µM | BT-549 > 100 µM | KM12 > 100 µM | RPMI-8226 > 100 µM

O=C(O)CCC(C(=O)O)N1C(=O)C2C3CCC(C3)C2C1=O (stereo unspecified)
inactive: SNB-19 > 100 µM | OVCAR-8 > 100 µM | NCI/ADR-RES > 100 µM | A498 > 100 µM | MDA-MB-231 > 100 µM | NCI-H226 > 100 µM | SNB-75 > 100 µM | NCI-H23 > 100 µM | HT-29 > 100 µM | MOLT-4 > 100 µM | HOP-62 > 100 µM | A549 > 100 µM | SW-620 > 100 µM | EKVX > 100 µM | PC-3 > 100 µM | BT-549 > 100 µM | KM12 > 100 µM | RPMI-8226 > 100 µM

C[N+]1(C)C2CC(OC(=O)C(CO)c3ccccc3)CC1C1OC12 (stereo unspecified)
inactive: CCRF-CEM > 100 µM | SNB-19 > 100 µM | OVCAR-8 > 100 µM | NCI/ADR-RES > 100 µM | A498 > 100 µM | MDA-MB-231 > 100 µM | NCI-H226 > 100 µM | SNB-75 > 100 µM | NCI-H23 > 100 µM | HT-29 > 100 µM | MOLT-4 > 100 µM | HOP-62 > 100 µM | A549 > 100 µM | SW-620 > 100 µM | EKVX > 100 µM | PC-3 > 100 µM | BT-549 > 100 µM | KM12 > 100 µM | RPMI-8226 > 100 µM

C1=N\CCNCC/N=C\c2ccc(cc2)OCc2cccc(n2)COc2ccc/1cc2
inactive: CCRF-CEM > 100 µM | SNB-19 49 µM | OVCAR-8 39.5 µM | NCI/ADR-RES 63.1 µM | A498 > 100 µM | MDA-MB-231 30.7 µM | NCI-H226 > 100 µM | SNB-75 23 µM | NCI-H23 66.7 µM | HT-29 > 100 µM | MOLT-4 > 100 µM | HOP-62 21.4 µM | A549 > 100 µM | SW-620 > 100 µM | EKVX > 100 µM | PC-3 78.2 µM | BT-549 66.4 µM | KM12 > 100 µM | RPMI-8226 > 100 µM

O=C1Oc2ccccc2C(=O)/C1=C/N1C(=O)CNC1=S
inactive: CCRF-CEM 80.2 µM | SNB-19 > 100 µM | OVCAR-8 > 100 µM | NCI/ADR-RES > 100 µM | MDA-MB-231 > 100 µM | NCI-H226 > 100 µM | NCI-H23 > 100 µM | HT-29 > 100 µM | MOLT-4 > 100 µM | HOP-62 > 100 µM | A549 > 100 µM | SW-620 > 100 µM | EKVX > 100 µM | HCC 2998 > 100 µM | PC-3 > 100 µM | BT-549 > 100 µM | KM12 > 100 µM | RPMI-8226 > 100 µM

CC(C)COC(c1ccc2c(c1)OCO2)C(C)Br (stereo unspecified)
inactive: SNB-19 33.7 µM | OVCAR-8 30.2 µM | NCI/ADR-RES 28.4 µM | A498 33.4 µM | MDA-MB-231 35.9 µM | NCI-H226 26.4 µM | SNB-75 23.1 µM | NCI-H23 26.2 µM | HT-29 18.9 µM | HOP-62 24.9 µM | A549 29.1 µM | SW-620 28.9 µM | EKVX 26.2 µM | HCC 2998 18.4 µM | PC-3 30.9 µM | BT-549 35.5 µM | KM12 22.9 µM | RPMI-8226 21.6 µM

CC12CP(=O)(c3ccccc3)CC1c1ccccc1C2c1ccccc1 (stereo unspecified)
inactive: CCRF-CEM 3.04 µM | SNB-19 48 µM | OVCAR-8 15.2 µM | NCI/ADR-RES 14.2 µM | A498 27.7 µM | MDA-MB-231 18.5 µM | NCI-H226 19.7 µM | NCI-H23 20.7 µM | HT-29 15.5 µM | MOLT-4 11.4 µM | HOP-62 18.5 µM | A549 16.4 µM | SW-620 17 µM | EKVX 17.9 µM | HCC 2998 17.7 µM | PC-3 12.4 µM | BT-549 > 10 µM | KM12 17.3 µM

COc1ccc(Cn2c(=O)c(OS(=O)(=O)C(F)(F)F)c(C)c3cc4ccccc4cc32)cc1
inactive: CCRF-CEM > 100 µM | SNB-19 > 100 µM | OVCAR-8 > 100 µM | NCI/ADR-RES > 100 µM | MDA-MB-231 > 100 µM | NCI-H226 > 100 µM | SNB-75 > 100 µM | NCI-H23 > 100 µM | HT-29 > 100 µM | MOLT-4 > 100 µM | HOP-62 > 100 µM | A549 > 100 µM | SW-620 > 100 µM | EKVX > 100 µM | HCC 2998 > 100 µM | PC-3 > 100 µM | BT-549 > 100 µM | KM12 > 100 µM

COc1ccc(/C=N/Nc2nnc3c(n2)c2ccccc2c2nn(-c4ccccc4Cl)nc23)cc1
inactive: CCRF-CEM > 100 µM | SNB-19 > 100 µM | OVCAR-8 > 100 µM | NCI/ADR-RES > 100 µM | A498 > 100 µM | MDA-MB-231 > 100 µM | NCI-H226 > 100 µM | SNB-75 > 100 µM | NCI-H23 > 100 µM | HT-29 > 100 µM | MOLT-4 > 100 µM | HOP-62 > 100 µM | A549 > 100 µM | SW-620 > 100 µM | EKVX > 100 µM | PC-3 > 100 µM | BT-549 > 100 µM | KM12 > 100 µM | RPMI-8226 > 100 µM

Nc1ccccc1/N=C/c1cc2cc([N+](=O)[O-])ccc2s1
inactive: CCRF-CEM 5.01 µM | SNB-19 14.1 µM | OVCAR-8 15 µM | NCI/ADR-RES 32.1 µM | A498 10.4 µM | MDA-MB-231 16.3 µM | SNB-75 14.4 µM | NCI-H23 33 µM | HT-29 25.8 µM | MOLT-4 3.08 µM | HOP-62 16.8 µM | A549 8.47 µM | SW-620 29.5 µM | EKVX 18.6 µM | HCC 2998 19.3 µM | PC-3 14.2 µM | BT-549 12.5 µM | KM12 10 µM | RPMI-8226 5.52 µM

Oc1ccc(CCNCc2cc3c(cc2Br)OCO3)cc1
inactive: CCRF-CEM 73.8 µM | SNB-19 > 100 µM | OVCAR-8 > 100 µM | NCI/ADR-RES 47.5 µM | A498 50 µM | MDA-MB-231 55.3 µM | NCI-H226 32.5 µM | SNB-75 18.4 µM | NCI-H23 > 100 µM | HT-29 52.8 µM | MOLT-4 32.6 µM | HOP-62 79.3 µM | A549 > 100 µM | SW-620 > 100 µM | EKVX > 100 µM | PC-3 46.9 µM | BT-549 92.5 µM | RPMI-8226 27.9 µM

CC(=O)OCC1OC(n2c(N)c(C#N)c(-c3cccc(Cl)c3)c(C#N)c2=S)C(OC(C)=O)C(OC(C)=O)C1OC(C)=O (stereo unspecified)
inactive: CCRF-CEM 3.31 µM | SNB-19 31.5 µM | OVCAR-8 14.9 µM | NCI/ADR-RES 28.4 µM | A498 20.6 µM | MDA-MB-231 18.9 µM | SNB-75 22.2 µM | NCI-H23 24.2 µM | HT-29 24.5 µM | MOLT-4 11.9 µM | HOP-62 23.3 µM | A549 24.3 µM | SW-620 32.7 µM | EKVX 27.2 µM | HCC 2998 10.8 µM | PC-3 24.9 µM | BT-549 20.7 µM | KM12 15.5 µM | RPMI-8226 10.9 µM

COc1ccc(N2C(=O)CC(C3CC(C(C)(C)C)CCC3=O)C2=O)cc1 (stereo unspecified)
inactive: CCRF-CEM > 100 µM | SNB-19 > 100 µM | OVCAR-8 > 100 µM | NCI/ADR-RES > 100 µM | MDA-MB-231 > 100 µM | NCI-H226 > 100 µM | SNB-75 > 100 µM | NCI-H23 > 100 µM | HT-29 > 100 µM | MOLT-4 > 100 µM | HOP-62 > 100 µM | A549 > 100 µM | SW-620 > 100 µM | EKVX > 100 µM | HCC 2998 > 100 µM | PC-3 > 100 µM | BT-549 > 100 µM | KM12 > 100 µM | RPMI-8226 > 100 µM

NC1(c2cc3ccccc3s2)CCCCCC1
inactive: CCRF-CEM 16 µM | SNB-19 18.2 µM | OVCAR-8 17.3 µM | NCI/ADR-RES 15 µM | A498 20.7 µM | MDA-MB-231 15.7 µM | NCI-H226 19.8 µM | SNB-75 11.1 µM | NCI-H23 17.3 µM | HT-29 14.2 µM | MOLT-4 14.1 µM | HOP-62 14.6 µM | A549 18.1 µM | SW-620 16.3 µM | EKVX 18.7 µM | HCC 2998 1.98 µM | PC-3 11.7 µM | BT-549 17.7 µM | KM12 16 µM
